{"source": "patent US8124582B2", "about": "“Treatment of diabetes” (FibroGen, Inc., priority 2002, dated 2012)", "key": {"[1]": {"tested_on": "IGFBP-1", "assay": "In vivo IGFBP-1 gene expression in kidney and liver (microarray)", "parameters": "species or system Swiss Webster male mice", "conditions": "mice, oral gavage; time course; quantitatively different level between tissues; FIG. 3B", "description": "(§1) To determine gene induction patterns over time, twenty four Swiss Webster male mice (30-32 g) were obtained from Simonsen, Inc. and treated by oral gavage with a 4 ml/kg volume of either 0.5% carboxymethyl cellulose (CMC; Sigma-Aldrich, St. Louis Mo.) (0 mg/kg/day) or […] compound B (25 mg/ml in 0.5% CMC) (100 mg/kg). At 4, 8, 16, 24, 48, or 72 hours after the final dose, animals were anesthetized with isoflurane. The mice were then sacrificed and tissue samples of kidney, liver, brain, lung, and heart were isolated and stored in RNALATER solution (Ambion) at −80° C.\nRNA from tissues obtained from the experiments described above was isolated using the following protocol. A 50 mg section of each organ was diced, 875 μl of RLT buffer (RNEASY kit; Qiagen Inc., Valencia Calif.) was added, and the pieces were homogenized for about 20 seconds using a rotor-stator POLYTRON homogenizer (Kinematica, Inc., Cincinnati Ohio). […] The RNA was eluted into 80 μL of water and quantitated with RIBOGREEN reagent (Molecular Probes, Eugene Oreg.). […] The absorbance at 260 and 280 nm was measured to determine RNA purity and concentration.\nAlternatively, tissue samples were diced and homogenized in TRIZOL reagent (Invitrogen Life Technologies, Carlsbad Calif.) using a rotor-stator POLYTRON homogenizer (Kinematica). […] The absorbance at 260 and 280 nm was measured to determine RNA purity and concentration. […]"}, "[2]": {"tested_on": "inducible nitric oxide synthase (iNOS)", "assay": "In vivo iNOS mRNA expression (quantitative PCR)", "parameters": "species or system Swiss Webster male mice", "conditions": "mice, FIG. 10A", "description": "as §1\nTo investigate the dose response of compounds of the present invention, twelve Swiss Webster male mice (30-32 g) (obtained from Simonsen, Inc., Gilroy Calif.) were treated by oral gavage once per day for 4 days with a 4 ml/kg volume of either 0.5% carboxymethyl cellulose (CMC; Sigma-Aldrich, St. Louis Mo.), compound D (25 mg/ml in 0.5% CMC) (100 mg/kg/day), or compound B (7.5 and 25 mg/ml in 0.5% CMC) (30 and 100 mg/kg/day, respectively). Four hours after the final dose, animals were anesthetized, sacrificed, and approximately 150 mg of liver and each kidney were isolated and stored in RNALATER solution (Ambion) at −20° C.\nHypertension is a risk factor for diabetes and disorders and diseases associated with diabetes. The effects of compounds of the present invention on regulation of blood pressure were examined as follows. Animals were treated with compound B or compound D and RNA samples were prepared as described above in Example 4. […] Analysis of the relative level of gene expression was performed by quantitative PCR using a FASTSTART DNA MASTER SYBR GREEN I kit (Roche) and gene-specific primers, using a LIGHTCYCLER system (Roche), according to manufacturer's instructions. […]\nThe relative level of 18S ribosomal RNA gene expression was measured as a control. Quantitative PCR was performed using a QUANTITECT SYBR GREEN PCR kit (Qiagen) and gene-specific primers, using a LIGHTCYCLER system (Roche), according to manufacturer's instructions. […]"}}, "data": [{"smiles": "O=C(O)CNC(=O)c1nc(Cl)c2ccccc2c1O", "note": "[compound B, [(1-Chloro4-hydroxy-isoquinoline-3-carbonyl)-amino]-acetic acid]", "values": [{"measurement": "IGFBP-1 expression in kidney and liver", "setting": "[1]", "result": "almost identical temporal induction"}, {"measurement": "dose dependence of iNOS induction", "setting": "[2]; 30 and 100 mg/kg/day oral gavage", "result": "dose-dependent"}, {"measurement": "expression of the gene encoding iNOS", "setting": "[2]; oral gavage, within 8 hours following treatment, then returned to control levels, normalized to 18S rRNA", "result": "increased"}]}]}
